US10369123B2, “Perk activator for the treatment of neurodegenerative diseases” (DEUTSCHES ZENTRUM FÜR NEURODEGENERATIVE ERKRANKUNGEN E.V. …, priority 2014, dated 2019)
“Also recorded” adds a separate entry of the source.

Experiments:
LUHMES cells = experiment: Identification of non-toxic, effective concentrations of PERK modulators (MTT viability, pEIF2A Western blot); type: cell-based, human; conditions: for non-toxic concentration effectively modifying EIF2A phosphorylation: LUHMES neurons, 48 h
Method: Nunc™ Nunclon™ Delta 6-well (for protein and mRNA) or 48-well (for cell assays) plates (Thermo Fisher Scientific, Waltham, Mass., USA) were coated with 100 μg/ml poly-L-lysine (Sigma-Aldrich, St. Louis, Mo., USA) and 5 μg/ml fibronectin (Sigma-Aldrich). […] They were then differentiated for 8 days in a medium of DMEM/F12 (Sigma-Aldrich), 1 μg/ml tetracycline, […] and 490 μg/ml dbcAMP into post-mitotic neurons with a dopaminergic phenotype (Lotharius et al. 2005). […] 20 μg of protein (unless indicated otherwise) were adjusted to equal concentrations between samples by dilution with M-PER and subsequently heated at 95° C. for 5 minutes with Roti®-Load 1 (Carl Roth). SDS-PAGE was performed using Any kD™ Mini-PROTEAN® TGX™ Gels (BioRad, Berkeley, Calif., USA) in a tris-glycine running buffer. The protein was blotted onto PVDF membrane (BioRad) at 70 V for 65 minutes on ice. The membrane was blocked with 1× Roti®-Block solution (Carl Roth) for 1 h and then incubated at 4° C. overnight under gentle shaking with the primary antibody (see Table 5) in TBS with 5% BSA (Cell Signaling Technology) and 0.05% TWEEN (Sigma-Aldrich). Thiazolyl Blue Tetrazolium […] (Sigma Aldrich) was dissolved in sterile PBS to a concentration of 5 mg/ml. […] The 48-well culture plate was then incubated at 37° C. for 1 h, the medium removed completely and frozen at −80° C. for 1 h. The plate was then thawed, 300 μl DMSO (AppliChem, Darmstadt, Germany) was added per well and the plate was shaken to ensure complete dissolution of the violet crystals. 100 μl from each well were transferred to a new 96-well plate and the absorbance was read with the FLUOstar Omega (BMG Labtech) platereader at a wavelength of 590 nm (reference wave length 630 nm). The data was analyzed using the MARS Data Analysis Software (BMG Labtech) and Prism 6.

LUHMES neurons = experiment: ATP assay, annonacin-treated LUHMES neurons; type: cell-based, human; conditions: annonacin + PERK activator 200 nM or PERK inhibitor 300 nM, 48 h, vs no PERK modulator
Method: (§1) Nunc™ Nunclon™ Delta 6-well (for protein and mRNA) or 48-well (for cell assays) plates (Thermo Fisher Scientific, Waltham, Mass., USA) were coated with 100 μg/ml poly-L-lysine (Sigma-Aldrich, St. Louis, Mo., USA) and 5 μg/ml fibronectin (Sigma-Aldrich). LUHMES (Lund Human Mesencephalic) cells, derived from human embryonic ventral mesencephalic cells by conditional immortalization (Tet-off v-myc over-expression) were seeded out in a concentration of 130,000 cells/cm^2 to achieve a confluence of 50%. They were then differentiated for 8 days in a medium of DMEM/F12 (Sigma-Aldrich), 1 μg/ml tetracycline, […] and 490 μg/ml dbcAMP into post-mitotic neurons with a dopaminergic phenotype (Lotharius et al. 2005).
For all experiments with annonacin, the medium was replaced during the intoxication period with new medium containing glucose levels reduced to 250 μM, i.e. the physiological concentration in the human brain.
(§2) ATP assays were conducted using the ViaLight™ plus kit by Lonza according to the manufacturer's instructions. Luminescence was read with the FLUOstar Omega (BMG Labtech) platereader. The data was analyzed using the MARS Data Analysis Software (BMG Labtech) and Prism 6.

[1] = tested on: LUHMES neurons overexpressing 4R-tau; experiment: ATP assay, LUHMES neurons overexpressing 4R-tau; type: cell-based, human; conditions: lentiviral 4R-tau overexpression 10 days, co-administration of PERK modulator
Method: as §1, with “2005). […]” for “2005).”
Concentrated lentiviral particles were titrated by transducing LUHMES cells with different dilutions at 6 hours after initiating differentiation. The lowest dilution at which at least 90% of cells expressed the transgene (as determined by immunohistochemistry of the cells fixed on day 2 post differentiation) was chosen for subsequent experiments. […]
as §2

PERK = molecular target: T1, PERK (Homo sapiens, UniProt Q9NZJ5); experiment: Western blot for pEIF2A and pNRF2, lentiviral 3R/4R-tau overexpression model; type: cell-based; design: endogenous in cells; host or cells: LUHMES neurons (differentiated, human); in A5 transduced with lentivirus for 3R-/4R-tau or mCherry, not for PERK; conditions: for pNRF2 level: 4R-tau overexpressing cells, PERK activator 200 nM or PERK inhibitor 300 nM; for effect on pEIF2A and pNRF2: lentiviral 3R-tau overexpression
T1 sequence (Q9NZJ5 30-1116): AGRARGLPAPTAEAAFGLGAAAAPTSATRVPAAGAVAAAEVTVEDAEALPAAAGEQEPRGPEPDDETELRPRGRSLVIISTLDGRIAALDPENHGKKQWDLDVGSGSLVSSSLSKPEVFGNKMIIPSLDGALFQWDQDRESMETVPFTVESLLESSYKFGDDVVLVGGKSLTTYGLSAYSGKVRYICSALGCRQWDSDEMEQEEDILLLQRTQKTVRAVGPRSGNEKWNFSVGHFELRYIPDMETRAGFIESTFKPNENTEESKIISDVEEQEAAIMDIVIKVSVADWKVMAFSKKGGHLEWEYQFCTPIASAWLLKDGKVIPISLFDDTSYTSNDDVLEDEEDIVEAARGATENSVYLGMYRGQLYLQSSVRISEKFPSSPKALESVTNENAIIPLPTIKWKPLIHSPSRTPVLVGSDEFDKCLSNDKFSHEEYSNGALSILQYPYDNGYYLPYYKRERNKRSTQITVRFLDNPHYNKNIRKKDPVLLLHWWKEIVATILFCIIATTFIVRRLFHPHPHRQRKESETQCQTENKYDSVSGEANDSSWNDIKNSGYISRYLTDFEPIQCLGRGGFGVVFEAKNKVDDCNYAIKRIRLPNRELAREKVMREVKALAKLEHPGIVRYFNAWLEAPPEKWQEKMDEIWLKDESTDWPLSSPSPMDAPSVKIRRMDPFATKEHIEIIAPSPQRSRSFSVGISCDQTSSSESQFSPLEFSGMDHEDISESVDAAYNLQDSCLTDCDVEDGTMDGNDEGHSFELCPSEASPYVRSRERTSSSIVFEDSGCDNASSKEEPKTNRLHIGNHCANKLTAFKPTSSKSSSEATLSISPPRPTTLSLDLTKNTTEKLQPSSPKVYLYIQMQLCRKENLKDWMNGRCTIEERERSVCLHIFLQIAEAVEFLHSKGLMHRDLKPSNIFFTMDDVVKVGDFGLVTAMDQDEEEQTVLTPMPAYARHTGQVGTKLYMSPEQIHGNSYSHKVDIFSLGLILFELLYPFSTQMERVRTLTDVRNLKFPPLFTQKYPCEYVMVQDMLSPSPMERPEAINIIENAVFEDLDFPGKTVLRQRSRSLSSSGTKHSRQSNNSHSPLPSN

Structure (SMILES) | non-toxic concentration effectively modifying EIF2A phosphorylation (LUHMES cells) [nM] | ATP concentration, effect of co-treatment (LUHMES neurons) | 4R-specific toxicity in ATP assay [1] | pNRF2 level (PERK) | pEIF2A level (PERK; 4R-tau overexpression, PERK inhibitor 300 nM) | effect on pEIF2A and pNRF2 (PERK) | doses at which detrimental effects of UPR overactivation were seen (LUHMES cells; in vitro) [µM] | pEIF2A level (PERK; lentiviral 3R or 4R-tau overexpression, PERK activator 200 nM)
Cn1cc(-c2ccc3c(c2)CCN3C(=O)Cc2cccc(C(F)(F)F)c2)c2c(N)ncnc21 [GSK2606414, reference compound] | 300 | slightly improved ATP concentrations at the single annonacin concentration of 12.5 nM; also recorded: significant only at an annonacin concentration of 12.5 nM | provided protection in the ATP assay, but to a lesser extent | not pNRF2 | decreased | no significant effect |  | 
CCN(CC)CCC(=O)N1N=C(c2c(-c3ccccc3)c3cc(Br)ccc3[nH]c2=O)CC1c1ccc(Br)cc1 (stereo not shown) [CCT020312, 6-bromo-3-[5-(4-bromo-phenyl)-1-(3-diethylamino-propionyl)-4,5-dihydro-1H-pyrazol-3-yl]-4-phenyl-1H-quinolin-2-one] | 200 | significant improvement | reduced significantly | significantly increased |  | no significant effect | > 3 | did not increase
